Measurements: patent US7781421B2, “Neuroactive 13, 24-cyclo-18, 21-dinorcholanes and structurally related pentacyclic steriods” (Washington University, priority 2003, dated 2010)

Experiments:
[1] = target: GABAA receptor ([35S]-TBPS binding site, rat brain cortical membranes); experiment: Displacement of [35S]-TBPS binding, rat brain cortical membranes; settings: 5 μM GABA, 2 nM [35S]-TBPS; ± standard error of the means
Method in brief: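 Rat cortical P2 membranes (0.5 mg/mL protein) incubated 2 h at room temperature with 2 nM [35S]-TBPS, 5 μM GABA and steroid (1 nM–10 μM) in 200 mM NaCl/50 mM potassium phosphate, pH 7.4. Filter-bound radioactivity counted; IC50 from Hill equation fit, triplicate points.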

Xenopus laevis tadpoles = experiment: Tadpole loss of righting (LRR) and swimming (LSR) reflexes; type: in vivo; settings: 3 h equilibration at room temperature
Method in brief: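 Groups of 10 early prelimb-bud Xenopus laevis tadpoles were held for 3 h at room temperature in oxygenated Ringer's containing compound (DMSO ≤0.1%). Loss of righting was scored as failure to right within 5 sec after flipping, and loss of swimming as failure to swim when touched. EC50 came from a Hill equation fit.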

[2] = target: T1, rat α1β2γ2 GABAA Receptor (Rattus norvegicus, UniProt P18508+P62813+P63138, INS375LLRMFSFK); experiment: Xenopus oocyte two-electrode voltage-clamp electrophysiology; type: cell-based; settings: for Oocyte electrophysiology, ratio of currents in presence/absence of compound, 0.1 μM: 0.1 μM compound co-applied with 2 μM GABA; for Oocyte electrophysiology, ratio of currents in presence/absence of compound, 0.1 μM / Oocyte electrophysiology, ratio of currents in presence/absence of compound, 1 μM / Oocyte electrophysiology, ratio of currents in presence/absence of compound, 10 μM: −70 mV; for Oocyte electrophysiology, ratio of currents in presence/absence of compound, 1 μM: 1 μM compound co-applied with 2 μM GABA; for Oocyte electrophysiology, ratio of currents in presence/absence of compound, 10 μM: 10 μM compound co-applied with 2 μM GABA; for Gating (10 μM), ratio of compound only current/2 μM GABA current: direct current gated by 10 μM compound in the absence of GABA
T1 construct: from linearized pBluescript vectors containing receptor coding regions; expressed in transfected cells; host or cells: Xenopus laevis oocytes injected with in vitro transcribed capped mRNA
T1 sequence (P62813 28-455, stated change not applied): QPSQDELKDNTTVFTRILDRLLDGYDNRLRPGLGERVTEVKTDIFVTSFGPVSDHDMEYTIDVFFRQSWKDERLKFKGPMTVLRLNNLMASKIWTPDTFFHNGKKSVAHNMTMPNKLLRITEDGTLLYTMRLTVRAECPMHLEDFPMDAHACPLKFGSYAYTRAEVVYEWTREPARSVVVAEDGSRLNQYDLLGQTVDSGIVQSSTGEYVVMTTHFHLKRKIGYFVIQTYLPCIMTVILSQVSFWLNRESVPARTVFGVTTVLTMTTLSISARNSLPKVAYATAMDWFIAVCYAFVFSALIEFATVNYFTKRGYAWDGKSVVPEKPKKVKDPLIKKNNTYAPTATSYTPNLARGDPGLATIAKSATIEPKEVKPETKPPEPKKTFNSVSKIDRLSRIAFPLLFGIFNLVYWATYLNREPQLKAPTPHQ
T1 sequence (P63138 26-474, stated change not applied): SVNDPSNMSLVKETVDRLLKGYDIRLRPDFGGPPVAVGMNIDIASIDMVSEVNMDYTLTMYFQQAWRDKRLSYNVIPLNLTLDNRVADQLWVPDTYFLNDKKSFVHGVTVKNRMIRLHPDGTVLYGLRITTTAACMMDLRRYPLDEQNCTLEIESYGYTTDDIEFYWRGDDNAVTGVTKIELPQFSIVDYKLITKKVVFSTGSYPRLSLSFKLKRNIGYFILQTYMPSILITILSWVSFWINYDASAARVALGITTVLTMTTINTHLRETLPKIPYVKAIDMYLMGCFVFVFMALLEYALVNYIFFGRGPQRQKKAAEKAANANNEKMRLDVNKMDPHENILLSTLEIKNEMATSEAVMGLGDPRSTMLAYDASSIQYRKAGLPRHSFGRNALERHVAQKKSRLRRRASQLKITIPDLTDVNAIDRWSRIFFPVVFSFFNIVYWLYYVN
T1 sequence (P18508 with tags, fused parts or gaps INS375LLRMFSFK): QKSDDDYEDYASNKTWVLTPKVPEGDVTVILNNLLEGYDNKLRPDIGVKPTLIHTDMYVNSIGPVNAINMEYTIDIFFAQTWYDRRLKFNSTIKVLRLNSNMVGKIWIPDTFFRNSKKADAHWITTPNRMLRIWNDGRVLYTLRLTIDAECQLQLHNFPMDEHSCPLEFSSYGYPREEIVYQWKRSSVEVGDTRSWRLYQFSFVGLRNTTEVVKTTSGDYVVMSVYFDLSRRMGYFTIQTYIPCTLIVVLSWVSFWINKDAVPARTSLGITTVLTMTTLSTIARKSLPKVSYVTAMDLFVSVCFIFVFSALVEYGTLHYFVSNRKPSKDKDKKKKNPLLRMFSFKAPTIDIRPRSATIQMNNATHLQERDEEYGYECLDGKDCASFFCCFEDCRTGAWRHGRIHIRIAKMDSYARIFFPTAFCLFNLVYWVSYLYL
Method in brief: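 Oocytes injected with rat α1, β2, γ2L mRNA, voltage-clamped at −70 mV 2-5 days later in ND96. Compounds co-applied with 2 μM GABA for 20 s; peak current ratio with/without compound, n≥4 oocytes. (G): current from 10 μM compound alone, as ratio to 2 μM GABA current.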

Row | Compound | IC50 [1] [nM] | melting point [°C] | LRR ED50 (loss of righting response) (Xenopus laevis tadpoles) | LSR EC50 (loss of swimming response) (Xenopus laevis tadpoles) | Oocyte electrophysiology, ratio of currents in presence/absence of compound, 0.1 μM [2] | Oocyte electrophysiology, ratio of currents in presence/absence of compound, 1 μM [2] | Oocyte electrophysiology, ratio of currents in presence/absence of compound, 10 μM [2] | Gating (10 μM), ratio of compound only current/2 μM GABA current [2]
1 | CC12CCC(O)CC1CCC1C2CCC23CCCC(O)C2CCC13 [Compound 68, (3α,5α,20R)-13,24-cyclo-18,21-dinorcholane-3,20-diol] | 1540 | 269 to 271 | >10 µM | None @ 10 | 0.74 ± 0.05 | 0.74 ± 0.05 | 0.79 ± 0.04 | 0.01 ± 0.02
2 | COC1CCCC23CCC4C(CCC5CC(O)CCC54C)C2CCC13 [Compound 69, (3α,5α,20S)-20-Methoxy-13,24-cyclo-18,21-dinorcholan-3-ol] | 353 ± 38 | 182 to 183 | None @ 10 | None @ 10 | 0.90 ± 0.04 | 1.26 ± 0.09 | 1.72 ± 0.28 | 0.00 ± 0.00
3 | COC1CCCC23CCC4C(CCC5CC(O)CCC54C)C2CCC13 [Compound 70, (3α,5α,20R)-20-Methoxy-13,24-cyclo-18,21-dinorcholan-3-ol] | 868 ± 78 | 200 to 202 | >10 µM | None @ 10 | 0.74 ± 0.01 | 0.87 ± 0.02 | 1.02 ± 0.03 | 0.00 ± 0.00
4 | C[C@]12CC[C@@H](O)C[C@@H]1CCC1C3CC[C@@H]4[C@H]5O[C@H]5CC[C@]34CCC12 (stereo partly drawn) [Compound 71, (3α,5α,20R,22S)-20,22-Epoxy-13,24-cyclo-18,21-dinorcholan-3-ol] | 596 ± 71 | 206 to 208 | None @ 10 | None @ 10 | 0.90 ± 0.05 | 1.05 ± 0.09 | 1.94 ± 0.23 | 0.00 ± 0.00
5 | C[C@]12CC[C@@H](O)C[C@@H]1CCC1C3CC[C@@H]4[C@@H]5O[C@@H]5CC[C@]34CCC12 (stereo partly drawn) [Compound 72, (3α,5α,20S,22R)-20,22-epoxy-13,24-cyclo-18,21-dinorcholan-3l] | 323 ± 25 | 203.5 to 205 | 19.3 ± 30.8 µM | None @ 10 | 0.90 ± 0.15 | 2.20 ± 0.25 | 6.39 ± 1.33 | −0.01 ± 0.04
